These results are taken from patent US20150224169A1, “COMPOUNDS AND METHODS FOR SELECTIVELY TARGETING CANCER STEM CELLS” (McMaster University, priority 2012, published 2015).

The structures appear in SMILES notation. Read-outs that look alike come from different tables or passages of the source.

Data set [1] concerns lineage-depleted human umbilical cord blood cells. Nature of the data set: Methylcellulose assay, CFU formation. Type of data set: cell-based. The settings on record: for Normal hematopoietic progenitor/stem cell proliferation activity (CFU-forming potential of cord blood cells): 0.1 μM, treated one day, 14 days in methylcellulose. An excerpt: (§1) Methylcellulose assays provide a functional and quantitative measure of hematopoietic progenitor/stem cell proliferation/clonogenic potential based on the formation of colony-forming units (CFUs) in vitro. Hematopoietic progenitor/stem cells from lineage-depleted human umbilical cord blood are capable of proliferation and differentiation to all blood lineages. AML blast cells from leukemia patients are myeloid progenitor cells blocked in differentiation that are sustained by a self-renewing leukemic stem cell(s). In this experiment, lineage-depleted cord blood cells and AML samples were each treated with Nystatin for one day and then cultured in methylcellulose for 14 days after which the numbers of CFUs were determined.
(§2) Cord blood and AML patient cells were seeded in 96-well plates at 500 cells and 25000 cells respectively in 50 μL medium containing StemSpan™ (Stemcell Technologies), 200 ng/mL stem cell factor (SCF, R&D Systems), 200 ng/mL Flt-3 (R&D Systems) and 40 ng/mL thrombopoietin (TPO, Stemcell Technologies). Then, 50 μL StemSpan containing 0.2 μM, 2 μM or 20 μM compounds was added to each well containing the cells. The cells were incubated for 24 hours at 37° C., after which the compound medium was removed from the wells and replaced with 50 μL medium containing StemSpan, 100 ng/mL SCF, 100 ng/mL Flt-3 and 20 ng/mL TPO. The cells from each well were mixed with 500 μL Methocult™ (Stemcell Technologies, H4434), and seeded into 12-well plates. The samples were imaged and scored after 14 days of incubation at 37° C.

A further data set relates to AML patient cells. Type of data set: cell-based, human. The settings on record: for Ability of AML cells to form CFUs / Selectivity ratio of total CFUs from cord blood cells versus blast CFUs from AML samples: 0.1 μM; for Ability of AML cells to form CFUs / CFU forming potential of AML cells: treated one day, 14 days in methylcellulose; for Selectivity ratio of total CFUs from cord blood cells versus blast CFUs from AML samples: normalized to 0.1% DMSO control, ratio greater than 1 = selective for AML.
Source text: as §1, §2

Data set [2] relates to variant neoplastic stem cells (v1O4) relative to normal stem cells (H9). The data set is described as follows: Selective-activity dose-response screening assay (cell counts, v1O4 versus H9). Particulars: dose-response curves FIG. 3B. The format is cell-based, human. As for the experimental part: Briefly, variant neoplastic stem cells (v1O4) cells were seeded into Matrigel-coated 96 well plates (5000 cells/well) containing mouse embryonic fibroblast conditioned media (MEFCM) supplemented with 8 ng/mL bFGF, and treated for 72 hours with compounds dissolved in DMSO. The final concentration of each compound used in treatment was either 10 μM or 1 μM (n=3). Control wells were treated with 0.1% DMSO (low control) or 100 ng/ml BMP4 (high control to induce LOP). At the end of 72 hours, cells were fixed, stained with Hoechst and imaged by automated microscopy. GFP intensity and Hoechst signal were quantified as measures of LOP and cell count, respectively, and compounds with a Z-score of more than 3 standard deviations from the mean for reduced cell count and LOP were chosen as hits.
In the second stage also shown in FIG. 1, 8- or 10-point dilutions for each compound were tested on variant neoplastic stem cells (v1O4) and normal stem cells (H9 cells) cells to generate dose-response curves. […] Dose response data were fit with a 4-parameter Hill equation to derive EC50, slopes, min and max values using IDBS ActivityBase software. The EC50 values were then used to calculate a selective-activity potency ratio (H9 EC50/v1O4 EC50).

Data set [3] relates to variant neoplastic stem cells. Particulars: Sachlos et al., 2012; cited from earlier work.
[4] abbreviates: higher concentrations (above 0.1 μM).

For the compound `Nc1ccn([C@@H]2O[C@H](CO)[C@@H](O)[C@@H]2O)c(=O)n1` [AraC, cytarabine], the “Normal hematopoietic progenitor/stem cell proliferation activity (CFU-forming potential of cord blood cells)” value in data set [1] was “also affected the CFU-forming potential of cord blood cells”. In addition, the “Toxicity to cord blood cells in methylcellulose assay” value in data set [1] (setting [4]) is on record as “toxic”. Besides, in the data set on AML patient cells, the “Ability of AML cells to form CFUs” value was “reduced the ability of AML samples to form CFUs” and the “Selectivity ratio of total CFUs from cord blood cells versus blast CFUs from AML samples” value is “no statistically significant difference”. The “Toxicity to AML cells in methylcellulose assay” value in the data set on AML patient cells (setting [4]) is recorded as “toxic”.

For the compound `Nc1nc(O)c2[nH]nnc2n1` [Azaguanine-8], the “Selectivity for cancer stem cells based on a single 10 μM concentration point” value (shortened to “Selectivity for cancer stem cells based”) in data set [2] was “would have not have been considered selective”.

For `C[C@@H]1[C@H](O)[C@@H](C)/C=C/C=C/CC/C=C/C=C/C=C/C=C/C(O[C@H]2O[C@H](C)[C@@H](O)[C@H](N)[C@@H]2O)CC2O[C@](O)(CC(O)C(O)CCC(O)CC(O)CC(O)CC(=O)O[C@H]1C)CC(O)C2C(=O)O` (some centres unmarked) [Nystatin], the “Normal hematopoietic progenitor/stem cell proliferation activity (CFU-forming potential of cord blood cells)” value in data set [1] was “little effect”. For the same compound, in the data set with AML patient cells, the “Ability of AML cells to form CFUs” value is given as “reduced the ability of AML cells to form CFUs” and the “Selectivity ratio of total CFUs from cord blood cells versus blast CFUs from AML samples” value is listed as 1.5. Moreover, in the data set with AML patient cells (1 μM), the “CFU forming potential of AML cells” value is “no effect”. For the same compound, the “CFU forming potential of AML cells” value in the data set with AML patient cells (10 μM) is “no effect”.

Regarding `CCCCc1ccc2[nH]c(NC(=O)OC)nc2c1` [Parbendazole], the “Selectivity for cancer stem cells based” value in data set [2] was “would have not have been considered selective”.

Consider `CS(=O)(=O)O.Cn1cc(C2=C(c3cn(CCCSC(=N)N)c4ccccc34)C(=O)NC2=O)c2ccccc21` [Ro 31-8220 mesylate], for which the “Selectivity for cancer stem cells based” value in data set [2] is recorded as “would have not have been considered selective”.

Turning to `CSc1ccc2c(c1)N(CCC1CCCCN1C)c1ccccc1S2` (centres unmarked) [Thioridazine], in data set [3], the “Action on variant neoplastic stem cells” value is given as “inducing differentiation through a loss of pluripotency”.
